Results from patent US20060079453A1, “Hla binding peptides and their uses” (priority 2002, published 2006).
pIC50: −log10 of the molar value. No end group written: not given here.

What was measured:
Test in all cases: biochemical
Assay type in all cases: binding
[1] = molecular target: HLA-DR DRB1*0101 (DR1) (Homo sapiens, UniProt P01903+P01911, A100R/D57E/F55L/F60I/F76Y/I96L/L162R/M171V/P40L/Q125E/R42F/V115G/Y59C); conditions: DRB1 *0101
[2] = molecular target: HLA-DR DRB1*0301 (DR3) (Homo sapiens, UniProt P01903+P01911, A100K/A102G/A103R/A169T/F55Y/I96L/K41T/L162R/M171V/P40S/Q125H/Q178H/Q39Y/R42S/S66N/T106N/T262R/W38E/Y61H)
Sequence of HLA-DR DRB1*0301 (DR3) (P01903 26-254 limits assumed, other chains not shown): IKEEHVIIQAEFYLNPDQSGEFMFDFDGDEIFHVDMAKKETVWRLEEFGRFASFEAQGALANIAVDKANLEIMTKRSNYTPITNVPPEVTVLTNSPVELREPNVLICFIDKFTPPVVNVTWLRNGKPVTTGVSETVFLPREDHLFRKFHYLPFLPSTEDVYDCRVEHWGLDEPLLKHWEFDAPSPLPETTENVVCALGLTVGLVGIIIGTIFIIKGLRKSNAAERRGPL

[3] = molecular target: HLA-DR DRB1*0401 (DR4) (Homo sapiens, UniProt P01903+P01911, A100K/A169T/F76Y/I96L/K127E/L162R/M171V/N62H/P40V/Q125Y/R42H/S133A/S149N/S66Y/V115G/V209L/W38E); conditions: DRB1 *0401
[4] = molecular target: HLA-DR DRB1*0405 (DR4) (Homo sapiens, UniProt P01903+P01911, A100R/A169T/D86S/F76Y/I96L/K127E/L162R/M171V/N62H/P40V/Q125Y/R42H/S133A/S149N/S66Y/V115G/V209L/W38E); conditions: DRB1 *0405
[5] = molecular target: HLA-DR DRB1*0701 (DR7) (Homo sapiens, UniProt P01903+P01911, A100R/A102G/A103Q/D57E/D86V/E43K/F76Y/K127E/L162R/M171V/P40G/Q125H/Q99D/R33Q/R42Y/R54Q/S133A/S66F/T210M/V115G/Y107V/Y59L/Y89S); conditions: DRB1 *0701
[6] = molecular target: HLA-DR DRB1*0802 (DR8) (Homo sapiens, UniProt P01903+P01911, A100R/A103L/A169T/F76Y/H45Y/I96F/K41T/L162R/M171V/P40S/Q125H/Q178H/Q39Y/Q99D/R218S/R42G/S66Y/V115G/W38E)
[7] = molecular target: HLA-DR DRB1*0901 (DR9) (Homo sapiens, UniProt P01903+P01911, A100R/A103E/D57H/D86V/F55Y/F60I/F76Y/I96F/K127E/L162R/M171V/P40D/Q125H/Q99R/R33Q/R42F/S133A/S66N/T210M/V115G/W38K/Y107V/Y59G/Y89S); conditions: DRB1 *0901
[8] = molecular target: HLA-DR DRB1*1101 (DR11) (Homo sapiens, UniProt P01903+P01911, A100R/A169T/A87E/I96F/K41T/L162R/M171V/P40S/Q125H/Q178H/Q39Y/Q99D/R42S/S66Y/T262R/V115G/W38E); conditions: DRB1 *1101
Sequence of HLA-DR DRB1*1101 (DR11) (P01903 26-254 limits assumed, other chains not shown): as above

[9] = molecular target: HLA-DR DRB1*1302 (DR13) (Homo sapiens, UniProt P01903+P01911, A100E/A169T/K41T/L162R/M171V/P40S/Q125H/Q178H/Q39Y/Q99D/R42S/S66N/T262R/V115G/W38E/Y61H); conditions: DRBI *1302
Sequence of HLA-DR DRB1*1302 (DR13) (P01903 26-254 limits assumed, other chains not shown): as above

[10] = molecular target: HLA-DR DRB1*1501 (DR15) (Homo sapiens, UniProt P01903+P01911); conditions: DRBI *1501
[11] = molecular target: HLA-DR DRB3*0101 (DR52) (Homo sapiens, UniProt P01903+P79483)
[12] = molecular target: HLA-DR DRB4*0101 (DR53) (Homo sapiens, UniProt P01903+P13762, G164S); conditions: DRB4 *0101
[13] = molecular target: HLA-DR DRB5*0101 (DR51) (Homo sapiens, UniProt P01903+Q30154); conditions: DRB5 *0101

| Sequence | pIC50 [1] | pIC50 [2] | pIC50 [3] | pIC50 [4] | pIC50 [5] | pIC50 [6] | pIC50 [7] | pIC50 [8] | pIC50 [9] | pIC50 [10] | pIC50 [11] | pIC50 [12] | pIC50 [13] |
| --- | --- | --- | --- | --- | --- | --- | --- | --- | --- | --- | --- | --- | --- |
| ALLKNYGLLYTFRKD | 7.72 | 5.22 | 6.80 | 6.52 | 5.23 | 5.44 | 5.58 | 5.76 | 9.05 | 8.19 | 7.30 | 5.87 | 7.54 |
| DMDKVETFLRIVQTR | 5.95 | 4.95 | 5.69 | 6.34 | 6.36 | 6.74 | 4.29 | 6.69 | 5.47 | < 4.06 | 4.86 | 6.72 |  |
| EHTSLNENITVPDTK | 4.36 | 4.47 |  | 5.90 | 4.43 | < 4.79 | < 4.10 | < 3.39 | 7.89 | 4.96 | < 4.37 | < 4.54 | 5.26 |
| FVNQHLCGSHLVEAL [FVNQHLCGSHLVEAL] | 6.23 | < 3.73 | 4.72 | < 4.68 | 6.17 | < 4.26 | < 4.20 | < 2.95 | 4.97 | 5.92 | < 4.02 |  | 4.33 |
| ICLLLIQSWLEPVQF |  | 4.29 | 4.95 | 7.15 | 6.19 | < 4.48 | < 4.23 | < 4.81 | 6.02 | 5.75 | 3.73 | 7.31 | < 5.02 |
| KEDSHTAWTIVRVEI | 5.72 | 4.35 | 6.13 | 6.52 | 7.46 | < 4.10 | 5.22 | 5.13 | 5.52 | 5.70 | 4.25 | 7.74 | 6.24 |
| KLQTYPRTNTGSGTP | < 5.00 | < 3.69 | < 4.58 | < 5.01 | < 4.00 | < 4.29 | < 4.53 | 5.09 | 6.01 | 6.28 | < 3.58 | < 3.98 | < 4.85 |
| LHKLQTYPRTNTGSG | 5.67 | < 3.69 |  | < 5.13 | 4.40 | 5.79 | < 4.53 | 5.22 | < 4.90 | 6.80 | < 3.58 | 4.64 | 7.40 |
| NSLVYGASDSNIYDL |  | < 4.29 | 6.62 | 5.91 | 6.53 | < 4.48 | < 4.23 | < 4.81 |  | 6.01 | 4.50 | 5.48 | < 5.02 |
| QHLTGSHLVEALYLV | 8.03 | 4.30 | < 4.79 | 5.13 | 7.42 | < 4.26 | 4.37 | < 4.98 | 5.16 | 6.74 | 5.40 |  | 4.62 |
| QLAFDTYQEFEQNPQ | < 4.75 | 5.11 | 4.54 | 5.31 | 4.68 | < 4.48 | < 4.23 | < 4.81 | 4.71 | < 4.06 | 6.13 | < 4.48 | < 5.02 |
| QSQKLLWQLNGRLEY | 6.90 | 4.48 | 7.08 | 7.26 |  | 6.00 | 5.23 | < 4.22 | 6.81 | 6.97 | 5.25 |  | 6.40 |
| RLRIVRGTQLFEDNYAL | 8.32 | 4.95 | 5.08 | 5.99 | 7.92 | 5.20 | 5.74 | 5.68 | 8.28 | 7.51 | 5.92 | 6.92 | 7.34 |
| RSSNTQTQKLLWQLN | 4.98 | 4.35 | 5.67 | 4.90 | 4.56 | 5.89 | < 4.11 | < 4.37 |  | 5.56 | 6.12 | 7.59 | 5.07 |
| SDSNIYDLLKDLEEG | < 4.75 | 3.90 | 4.76 | 6.86 | < 4.07 | < 4.48 | 4.30 | < 4.81 | < 4.79 | < 4.06 | < 4.73 | 4.62 | < 5.02 |
| TCVLGKLSQELHKLQ | 7.59 | 4.53 | 4.83 | 5.05 | 4.73 | 5.12 | 4.75 | 5.85 | < 4.90 | 5.70 | < 3.58 | 6.79 | 5.40 |
| TSNLSTTVLGKLSQE |  | 4.06 | 5.10 | 5.03 | 4.50 | 5.69 | 5.61 | 6.27 | 5.03 | 5.11 | < 3.58 |  | 5.60 |
| TTVLGKLSQELHKLQ |  | 4.03 |  | < 5.01 |  | 4.79 | 4.62 | 5.45 | 4.90 | 6.28 | < 3.58 | 6.62 | 4.97 |
| VCGERGFFYTPKTRR | 5.02 | 5.70 | < 4.69 | < 4.82 | 5.26 | 6.38 | 4.84 | 5.42 | 4.46 | < 4.59 | 4.76 | < 4.51 | 7.04 |
| VEALYLVCGERGFFY | 7.12 | 4.76 | 6.68 | 5.98 | 5.41 | 4.61 | 5.65 | 5.45 | 5.36 |  | 5.35 | 7.52 | 4.59 |
| VEALYLVCGERGSFY | 7.06 | 5.00 |  | 5.21 | 5.19 | < 4.26 | 5.20 | < 4.98 | 5.37 | 5.91 | < 4.02 |  | 6.09 |
| VTGERGFFYTPKTRR | 4.72 | 5.52 | 5.14 | 4.87 | 4.56 | 5.03 | < 3.52 | 4.99 | 4.60 | 5.55 | 3.61 | < 4.53 | 6.27 |
